According to US20190008864A1, “PHARMACEUTICAL COMPOSITION CONTAINING GPR119 LIGAND AS EFFECTIVE INGREDIENT FOR PREVENTING OR TREATING NON-ALCOHOLIC STEATOHEPATITIS” (PHARMEDIX.CO., LTD., priority 2014, published 2019):

Columns and labels:
SREBP-1c [1] = experiment: SREBP-1c expression under high-glucose/high-insulin exposure, HepG2 (western blot); type: cell-based, human; conditions: 30 mM glucose, 200 nM insulin 24 hours, 1-3 μM ligand
Experimental: (§1) A 6-well plate was inoculated with HepG2 (ATCC, US), as a human hepatocyte line, and cultured until confluence in a DMEM medium containing 1% penicillin-streptomycin (Hyclone, US) and 10% fetal bovine serum (Hyclone, US) in a 5% CO2 incubator at 37° C. The medium containing 10% fetal bovine serum of the hepatocyte line grown to confluence was replaced by a medium not containing FBS. The cell line was additionally cultured for 18 hours and used as a sample for an experiment.
(§2) Sodium dodecyl sulfate-polyacrylamide gel electrophoresis (SDS-PAGE) was carried out by means of a gel electrophoresis device (Mighty Small SE 250, Hoefer Scientific Instruments, San Francisco) according to a method by Laemmli (UK, Nature 227, 680-685, 1970). […] Whether total protein contents in samples are the same is determined using anti-β-actin and anti-LaminA/C antibodies. Changes in protein expression amounts were determined by measuring the intensities of chemiluminescence signals on the blot by means of densitometry. […] Each lane was calculated using AlphaEase™ version 5.5 software and background intensity was removed from the calculated values. […]

SREBP-1c [2] = experiment: SREBP-1c expression under high-glucose/high-insulin exposure, primary hepatocytes (western blot); type: cell-based, mouse; conditions: 0.3-10 μM ligand
Experimental: Liver cells were collected from male C57BL/6 mice (Central Lab. Animal Inc., Seoul) according to a method by Seglen et al. (Exp Cell Res., 82, pp 391-398, 1973). Each C57BL/6 mouse was anesthetized and then the abdomen thereof was incised. Subsequently, the hepatic portal vein was intubated and a gas mixture of 5% CO2 and 95% O2 was insufflated thereinto. A Ca^2+ and Mg^2+-free Hank's balanced salt solution at 37° C. was flowed into the tube to remove blood in the liver. Subsequently, a 0.1% collagenase type IV (Sigma, US) solution was flowed thereinto. The liver tissue was removed from the body, and then prepared into a hepatocyte suspension. The prepared hepatocyte suspension was centrifuged at 50×g for two minutes. […]
as §2

FAS = FAS expression under high-glucose/high-insulin exposure, HepG2 (western blot); type: cell-based, human
Experimental: as §1, §2

iNOS protein = iNOS protein expression after LPS stimulation in RAW264.7 cells (western blot); type: cell-based, mouse; conditions: RAW264.7, 3 μM, 10 ng/ml LPS, 6 hours
Experimental: RAW264.7 cells cultured in 6-well plates were stabilized for 12 hours in a serum-free medium, and then exposed to 3 μM of MBX-2982 and 10 ng/ml of LPS. After 6 hours, the cells were lysed in cytolysis buffer and voltexed. Centrifugation was conducted at 14,000 rpm and 4° C. for 20 minutes. A supernatant of the centrifuged solution was collected and then subjected to protein quantification by the Bradford assay. 15 μg of a protein thereof was electrophoresed on an SDS polyacrylamide gel, and then expression changes of iNOS and COX-2 proteins were measured by western blotting. Expression changes in triplicate experiments were measured with a densitometer and are shown as graphs.
As described above, RAW264.7 cells, which were derived from a mouse macrophage cell line, was subjected to LPS stimulation, and then inflammatory marker changes therein were evaluated. Results are illustrated in FIG. 17.

MCP-1 mRNA = MCP-1 mRNA after LPS stimulation in RAW264.7 cells (real time PCR); type: cell-based, mouse; conditions: RAW264.7, 3 μM, 10 ng/ml LPS, 6 hours
Experimental: RAW264.7 cells cultured in 6-well plates were stabilized for 12 hours in a serum-free medium, and then exposed to 3 μM of MBX-2982 and 10 ng/ml of LPS. After 6 hours, RNA samples extracted with TRIZOL were reversely transcribed using a cDNA synthesis PCR kit to synthesize cDNAs. The cDNAs obtained through reverse transcription were used as a template, and primers for 5′ and 3′ flanking sequences of cDNAs to be amplified were as follows. Real time PCR (Mini-Opticon, Bio-Rad, US) was carried out and the expression levels of mRNA were investigated.
Inflammatory marker change results evaluated after LPS stimulation for RAW264.7 cells, which were derived from a mouse macrophage cell line, are illustrated in FIG. 18.

## CCc1cnc(N2CCC(c3nc(COc4ccc(-n5cnnn5)cc4)cs3)CC2)nc1 [MBX2982, 4-((4-(1H-tetrazol-1-yl)phenoxy)methyl)-2-(1-(5-ethylpyrimidin-2-yl)piperidin-4-yl)thiazole]
SREBP-1c [1]
  SREBP-1c and nuclear (active-type) SREBP-1C expression increased by high-glucose/high-insulin: completely inhibited
SREBP-1c [2]
  SREBP-1c and nuclear (active-type) SREBP-1C expression increased by high-glucose/high-insulin: completely inhibited
FAS
  FAS expression increased by high-glucose/high-insulin: inhibited
iNOS protein
  expression of iNOS protein: decreased
MCP-1 mRNA
  expression of MCP-1 mRNA: decreased
